Structures are written as SMILES. pIC50: −log10 of the molar value.

Assay [1] deals with Rat neutrophils. Description: Elastase production by fMLP stimulation (elastase release inhibition). The format is cell-based. The following applies: elastase release from cytochalasin B-primed rat neutrophils, fMLP 1 μM, 10 minutes preincubation. The method, then: Test for Elastase Production by fMLP (N-formyl-Met-Leu-Phe)Stimulation
Rat neutrophils preparation was obtained 15-18 hours after intraperitoneal injection of a 1% sterile casein solution in saline (120 mL/kg). Cells were harvested by peritoneal lavage after the decapitation. The lavage fluid was ice-cold PBS (Phosphate-Buffered Saline). Peritoneal exudates were pooled, centrifuged and suspended in HBSS (Hanks' Balanced Salt Solution) at 1×10^7 cells/mL. Cytochalasin B (final concentration: 5 μg/mL) were added to prime the cells. The cells were added into a 96-well culture plate (190 μL/well) and then the compounds of the present invention at various concentrations (10^−7 to 3×10^−5 M) were added and incubated at 37° C. in an atmosphere of 5% CO2 in air. […]
Elastase activity in the incubated supernatant was measured using a specific elastase substrate, N-succinyl-L-alanyl-L-alanyl-L-proline-valine-MCA (Peptide Institue, Inc., Osaka), 0.12 mM in 50 mM Tris-HCl (pH 8.0). […]
Elastase release-inhibiting activity (inhibition ratio) was calculated according to the following equation: Inhibition ratio (%) […]×100 wherein A stands for a fluorescence intensity when fMLP (1 μM) was added; B stands for a fluorescence intensity when fMLP (1 μM) and the present compound were added; and C stands for a fluorescence intensity when fMLP (1 μM) was not added. […]

The test system of assay [2] is rat t-MCAo model. Description: Infarct volume in rat transient MCA occlusion (t-MCAo) model. The following applies: 0.1 mg/kg/min, intravenous 1 hour infusion immediately after reperfusion; 71 hrs after reperfusion; vs vehicle-treated group, p<0.05 Dunnett's test. The format is in vivo, Wistar rats. The method, then: FIG. 1 represents an effect of compound 33 on infarct volume in rat t-MCAo model.
The infract volumes of total (open column), cortex (closed column) and subcortex (hatched column) were determined 71 hrs after reperfusion. Data are presented as mean±SEM. *p<0.05 vs vehicle-treated group (Dunnett's test).
Effect on the Infarct Volume in Rat Transient MCA Occlusion (t-MCAo) Model.
Adult male Wistar rats (200-250 g) were anesthetized with 2% halothane in air. The right internal carotid artery (ICA) was carefully dissected. A silicon-coated suture (18 mm-long) was inserted into the ICA. Body temperature was maintained at 37° C. with a heating pad. […] After 1 hour of MCA occlusion, the thread was removed to allow reperfusion of the ischemic area. Rats were received intravenously 1 hour-infusion of vehicle (10% of HP-β-CD) or compound 33 dissolved in vehicle immediately after reperfusion.
To measure infarct volume, rats were killed at 71 hours of reperfusion. Brains were perfused transcardially with physiological saline, and removed from skulls, cut into 2-mm coronal sections. The slices were immersed in 2% triphenyltetrazolium chloride (TTC) solution at 37° C. for 30 minutes. All values were presented as mean±SEM. For statistical analyses, Dunnett's multiple-range test was used.

For orientation: pIC50 means −log10 of the IC50, conventionally taken in molar units. Read a high pIC50 as a low IC50. As for `CCCC[C@@H](O)/C=C\CCCCCCC/C=C\CCCS(=O)(=O)O` [Compound 23, Sodium (R)-(4Z, 13Z)-15-hydroxynonadeca-1,13-diene-1-sulfonate], the negative logarithm of the IC50 (pIC50) in assay [1] is 5.01.

In assay [1] (Neutrophil), `CCCC[C@@H](O)/C=C\CCCCCCCCCCCCS(=O)(=O)[O-].[Na+]` [Compound 33, Sodium (R)-(Z)-15-hydroxynonadec-13-ene-1-sulfonate] showed a pIC50 of 4.82. Also, in assay [2], the cortex infarct volume entry is reported as “significantly reduced” and the total infarct volume entry is recorded as “significantly reduced”.

These data come from US20050020680A1, “Hydroxyfattysulfonic acid analogs” (priority 2001, published 2005).
